Source: publication PMC10610188, “Structure–Activity Relationship Studies of Chalcones and Diarylpentanoids with Antitumor Activity: Potency and Selectivity Optimization” (Pharmaceuticals, 2023)

How the values were obtained:
HCT116 p53^+/+ cells = experiment: SRB growth inhibition assay in HCT116 p53+/+ cells; type: cell-based, human; details: SRB assay, 48 h of treatment
Experimental: (§1) To study the in vitro antitumor potential of chalcone CM-M345 (1) and diarylpentanoid BP-C4 (2) analogues, the sulforhodamine B (SRB) assay was used to evaluate the antiproliferative activity in human colorectal HCT116 cancer cells. To assess their cytotoxicity toward normal cells, the antiproliferative effect of these compounds was also tested in human fibroblasts HFF-1 cells. In order to confirm if inhibition of proliferation was associated with p53 activation in HCT116 p53^+/+ cells, all compounds were also tested in HCT116 cells in which p53 was knocked out (HCT116 p53^−/−) and the selective index was calculated and compared to the compounds CM-M345 (1) and BP-C4 (2), for which p53-dependent antiproliferative activity was previously reported by our research group (Table 1).
(§2) The colorectal adenocarcinoma HCT116 cells (HCT116 p53^+/+) and its p53-null isogenic derivative (HCT116 p53^−/−) were given by Prof. Vogelstein (The Johns Hopkins Kimmel Cancer Center, Baltimore, USA); the normal human fibroblasts HFF-1 cell lines were from ATCC (Rockville, MD, USA). Human cells were cultured in RPMI-1640 with UltraGlutamine (Lonza, VWR, Portugal) with 10% FBS (Gibco, Alfagene, Portugal) at 37 °C with 5% CO2. The SH-SY5Y cells were cultured in DMEM/F-12 (Lonza) and 10% FBS and 2mM L-glutamine (Gibco). The cells were incubated at 37 °C in a humidified atmosphere of 5% CO2. Mycoplasma was routinely checked using the MycoAlert™ PLUS kit (Lonza). […]

HCT116 p53^−/− cells = experiment: SRB growth inhibition assay in HCT116 p53-/- cells; type: cell-based, human; details: for SI1: Selective index 1: GI50 of HCT116 p53^−/−/GI50 of HCT116 p53^+/+; for GI50: Homo sapiens, HCT-116, SRB assay, 48 h of treatment
Experimental: as §1, §2

HFF-1 cells = experiment: SRB growth inhibition assay in normal fibroblasts HFF-1; type: cell-based, human; details: for SI2: Selective index 2: GI50 of HFF-1/GI50 of HCT116 p53^+/+; for GI50: Homo sapiens, HFF-1, SRB assay, 48 h of treatment
Experimental: as §1, §2

| Structure (SMILES) | GI50 (HCT116 p53^+/+ cells; Homo sapiens, HCT-116, 48 h) [µM] | GI50 (HCT116 p53^−/− cells) [µM] | melting point [°C] | GI50 (HCT116 p53^+/+ cells) [µM] | SI1: Selective index 1 (HCT116 p53^−/− cells) | SI2: Selective index 2 (HFF-1 cells) | GI50 (HFF-1 cells) [µM] | GI50 (HCT116 p53^+/+ cells; Homo sapiens, HCT-116) [µM] |
| --- | --- | --- | --- | --- | --- | --- | --- | --- |
| COc1cc(/C=C2\Cc3c(ccc(OC)c3OC)C2=O)cc(OC)c1OC [Compound 4, (E)-2-(3,4,5-trimethoxybenzylidene)-4,5-dimethoxy-2,3-dihydro-1H-inden-1-one] |  | 3.1 ± 0.22 | 165 to 168 |  | 0.82 | 1.34 | 5.1 ± 0.9 | 3.8 ± 0.32 |
| O=C1/C(=C/c2ccc(Cl)cc2)Cc2ccccc21 [Compound 6] | 21.5 to 30 | > 30 | 179 to 181 | 21.5 ± 1.19 |  |  | > 30 |  |
| COc1ccc2c(c1OC)C/C(=C\c1ccc(Cl)cc1)C2=O [Compound 7, (E)-2-(4-chlorobenzylidene)-4,5-dimethoxy-2,3-dihydro-1H-inden-1-one] | 7.4 ± 0.56 | 4.5 ± 0.13 | 206 to 209 |  | 0.61 | 0.64 | 4.7 ± 0.5 |  |
| COc1cc2c(cc1OC)C(=O)/C(=C/c1ccc(Cl)cc1)C2 [Compound 8] |  | 4.5 ± 0.28 |  |  | 0.60 | 0.68 | 5.1 ± 0.9 | 7.5 ± 0.45 |
| COc1cc2c(cc1OC)C(=O)/C(=C/c1cc(OC)c(OC)c(OC)c1)CC2 [Compound 10, (E)-2-(3,4,5-trimethoxybenzylidene)-6,7-dimethoxy-3,4-dihydronaphthalen-1(2H)-one] | 6.7 to 8.6 | 2.9 ± 0.11 | 145 to 147 | 4 ± 0.23 | 0.73 | 1.35 | 5.4 ± 0.1 |  |
| COc1cc(/C=C2\COc3ccccc3C2=O)cc(OC)c1OC [Compound 11] | 6.7 to 8.6 | 6.1 ± 1 | 109 to 111 | 6.3 ± 2.18 | 0.97 | 1.32 | 8.3 ± 1.4 |  |
| O=C1/C(=C/c2ccc(Cl)cc2)CCc2ccccc21 [Compound 13] | 21.5 to 30 | > 30 |  | > 30 |  |  | > 30 |  |
| COc1cc2c(cc1OC)C(=O)/C(=C/c1ccc(Cl)cc1)CC2 [Compound 14, (E)-2-(4-chlorobenzylidene)-6,7-dimethoxy-3,4-dihydronaphthalen-1(2H)-one] | 6.7 ± 0.21 | 4.3 ± 0.15 |  |  |  |  | 7.7 ± 0.2 |  |
| O=C1/C(=C/c2ccc(Cl)cc2)COc2ccccc21 [Compound 15] | 8.6 ± 0.5 | 5.29 ± 0.19 |  |  | 0.62 | 0.49 | 4.25 ± 0.32 |  |
| O=C1/C(=C/c2ccc(Cl)cc2)CC/C1=C\c1ccc(Cl)cc1 [Compound 18] | > 30 | > 30 |  |  |  |  | > 30 |  |
| COc1cc(/C=C/C(=O)/C=C/c2cc(OC)c(OC)c(OC)c2)cc(OC)c1OC [Compound 21] | > 30 | > 30 |  |  |  |  | > 30 |  |
| CCCc1c(OC)ccc2c(=O)cc(-c3cc(OC)c(OC)c(OC)c3)oc12 [Compound 27, 7-methoxy-8-propyl-2-(3,4,5-trimethoxyphenyl)-4H-chromen-4-one] | > 30 | > 30 | 153 to 155 |  |  |  | > 30 |  |
| CCCc1c(OC)ccc(C(O)/C=C/c2cc(OC)c(OC)c(OC)c2)c1O (centres unmarked) [Compound 28, (E)-6-(1-hydroxy-3-(3,4,5-trimethoxyphenyl)allyl)-3-methoxy-2-propylphenol] | 15 ± 1.73 | 12 ± 5 | 219 to 222 |  | 0.80 | 1.13 | 17 ± 4.4 |  |
| CCCc1c(OC)ccc(C(=O)CCc2cc(OC)c(OC)c(OC)c2)c1O [Compound 29, 1-(2-hydroxy-4-methoxy-3-propylphenyl)-3-(3,4,5-trimethoxyphenyl)propan-1-one] | 18.7 ± 2.19 | 11.2 ± 5.3 |  |  | 0.60 | 1.18 | 22.1 ± 7.2 |  |
| OC1/C(=C/c2ccc(Cl)cc2)COC/C1=C\c1ccc(Cl)cc1 (centres unmarked) [Compound 30, 3,5-bis((E)-4-chlorobenzylidene)tetrahydro-2H-pyran-4-ol] | > 30 | > 30 | 219 to 222 |  |  |  | > 30 |  |
| O=C1C(Cc2ccc(Cl)cc2)COCC1Cc1ccc(Cl)cc1 (centres unmarked) [Compound 31, 3,5-bis(4-chlorobenzyl)tetrahydro-4H-pyran-4-one] | > 30 | > 30 | 145 to 146 |  |  |  | > 30 |  |
| CCCc1c(OC)ccc(C(=O)/C=C/c2ccc(Cl)cc2)c1O [Compound 32] | 9.5 ± 0.5 | 9.5 ± 0.1 | 109 to 112 |  | 1 | 1.17 | 11.1 ± 0.12 |  |
| CCCc1c(OC)ccc(C(=O)/C=C/c2ccc(N(C)C)cc2)c1O [Compound 35, (E)-3-(4-(dimethylamino)phenyl)-1-(2-hydroxy-4-methoxy-3-propylphenyl)prop-2-en-1-one] |  | 16.3 ± 2.6 | 126 to 128 |  | 1.52 | 1.31 | 14 ± 3.6 |  |
| CC(C)=CCOc1ccccc1/C=C1\COC/C(=C\c2ccccc2OCC=C(C)C)C1=O [Compound 38, 3,5-bis((E)-2-((3-methylbut-2-en-1-yl)oxy)benzylidene)tetrahydro-4H-pyran-4-one] | > 30 | > 30 |  |  |  |  | > 30 |  |

More lines, main results first:

| GI50 (HCT116 p53^+/+ cells; Homo sapiens, HCT-116, 48 h) [µM] | GI50 (HCT116 p53^−/− cells) [µM] | melting point [°C] | GI50 (HCT116 p53^+/+ cells) [µM] | Structure (SMILES) | SI1: Selective index 1 (HCT116 p53^−/− cells) | SI2: Selective index 2 (HFF-1 cells) | GI50 (HFF-1 cells) [µM] | GI50 (HCT116 p53^+/+ cells; Homo sapiens, HCT-116) [µM] |
| --- | --- | --- | --- | --- | --- | --- | --- | --- |
| 4.6 ± 0.3 | 3.2 ± 0.47 | 160 to 163 |  | COc1cc(/C=C2\Cc3ccccc3C2=O)cc(OC)c1OC [Compound 3] | 0.70 | 1.76 | 8.1 ± 0.1 |  |
| 6.1 ± 0.12 | 4.1 ± 0.36 | 156 to 159 |  | COc1cc2c(cc1OC)C(=O)/C(=C/c1cc(OC)c(OC)c(OC)c1)C2 [Compound 5] | 0.67 | 0.52 | 3.2 ± 0.07 |  |
| 5.9 ± 1.28 | 7.8 ± 0.9 |  |  | COc1cc(/C=C2\CCc3ccccc3C2=O)cc(OC)c1OC [Compound 9] | 1.32 | 0.93 | 5.5 ± 0.03 |  |
| 5.7 ± 0.51 | 3.9 ± 0.26 |  |  | COc1cc(/C=C2\CSc3ccccc3C2=O)cc(OC)c1OC [Compound 12, (Z)-3-(3,4,5-trimethoxybenzylidene)thiochroman-4-one] |  |  | 6.7 ± 0.4 |  |
| 3.1 ± 0.1 | 2.95 ± 0.15 |  |  | O=C1/C(=C/c2ccc(Cl)cc2)CCC/C1=C\c1ccc(Cl)cc1 [Compound 19] | 0.95 | 4.55 | 14.1 ± 0.12 |  |
| 1.13 ± 0.17 | 1.05 ± 0.05 | 126 to 128 |  | O=C1/C(=C/c2ccc(Cl)cc2)CSC/C1=C\c1ccc(Cl)cc1 [Compound 20] | 0.93 | 2.01 | 2.27 ± 0.09 |  |
| 0.09 ± 0.03 | 0.07 ± 0.01 |  |  | COc1cc(/C=C2\CC/C(=C\c3cc(OC)c(OC)c(OC)c3)C2=O)cc(OC)c1OC [Compound 22] | 0.78 | 1.50 | 0.135 ± 0.004 |  |
| 2.3 ± 0.03 | 0.56 ± 0.07 |  |  | COc1cc(/C=C2\CCC/C(=C\c3cc(OC)c(OC)c(OC)c3)C2=O)cc(OC)c1OC [Compound 23] | 0.24 | 0.72 | 1.65 ± 0.04 |  |
| 0.31 ± 0.03 | 0.57 ± 0.009 | 219 to 222 |  | COc1cc(/C=C2\CSC/C(=C\c3cc(OC)c(OC)c(OC)c3)C2=O)cc(OC)c1OC [Compound 24] | 1.84 | 0.74 | 0.23 ± 0.02 |  |
| 6 ± 0.93 | 4.6 ± 1.7 | 100 to 103 |  | CCCc1c(OC)ccc(C(=O)/C=C/c2cc(OC)c(OC)c(OC)c2)c1OCC=C(C)C [Compound 26, (E)-1-(4-methoxy-2-((3-methylbut-2-en-1-yl)oxy)-3-propylphenyl)-3-(3,4,5-trimethoxyphenyl)prop-2-en-1-one] | 0.77 | 1.22 | 7.3 ± 2 |  |
| 0.71 |  |  |  | COc1cc([C@@H]2c3cc4c(cc3[C@@H](O[C@@H]3O[C@@H]5CO[C@@H](C)O[C@H]5[C@H](O)[C@H]3O)[C@H]3COC(=O)[C@H]23)OCO4)cc(OC)c1O [Etoposide, reference compound] |  |  | 0.35 |  |
